In PMC11855827, “High-Throughput Screening of Five Compound Libraries for Anthelmintic Activity and Toxicity Leads to the Discovery of Two Flavonoid Compounds” (International Journal of Molecular Sciences, 2025):
Several values for one entry are separate records, joined by “and”; a condition that tells them apart may be missing. Equal values may be shown once.

Test system: C. elegans
Conditions: Table S2, C. elegans SS assay, 110 μM, averages of 4 data points

Compound | Percentage of motility inhibition 0 h | Percentage of motility inhibition 24 h
CC[C@H]1OC(=O)C[C@@H](O)[C@H](C)[C@@H](O[C@@H]2O[C@H](C)[C@@H](O)[C@H](N(C)C)[C@H]2O)[C@@H](CCN2C[C@H](C)C[C@H](C)C2)C[C@@H](C)C(=O)/C=C/C(C)=C/[C@@H]1CO[C@@H]1O[C@H](C)[C@@H](O)[C@@H](OC)[C@H]1OC.O=P(O)(O)O [Tilmicosin (phosphate)] | 6% | 10%
CC(C)=CCC[C@H](C)[C@@H]1CC[C@]2(C)C3=C(CC[C@@]12C)[C@@]1(C)CC[C@H](O)C(C)(C)[C@@H]1CC3 [Tirucallol] | 12% | 39%
Cl.c1ccc(CC2=NCCN2)cc1 [Tolazoline (hydrochloride)] | 21% | 0%
Cc1cc(-n2c(=O)[nH]c(=O)n(C)c2=O)ccc1Oc1ccc(S(=O)(=O)C(F)(F)F)cc1 [Toltrazuril (sulfone)] | 38% | 12%
CC[C@@]1(O)C(=O)OCc2c1cc1n(c2=O)Cc2cc3c(CN(C)C)c(O)ccc3nc2-1.Cl [Topotecan (Hydrochloride)] | 5% | 3%
CC[C@@]1(O)C(=O)OCc2c1cc1n(c2=O)Cc2cc3c(CN(C)C)c(O)ccc3nc2-1.Cl [Topotecan (hydrochloride)] | 19% | 6%
O=c1cc(-c2ccccc2)oc2cc(O)cc(O[C@@H]3O[C@H](CO)[C@@H](O)[C@H](O)[C@H]3O)c12 [Toringin] | 0% | 2%
C[C@@H]1CC[C@]2(C(=O)O)CC[C@]3(C)C(=CC[C@@H]4[C@@]5(C)C[C@@H](O)[C@H](O)C(C)(C)[C@@H]5CC[C@]43C)[C@@H]2[C@]1(C)O [Tormentic acid] | 3% | 5%
NC1CCN(c2nc3c(cc2F)c(=O)c(C(=O)O)cn3-c2ccc(F)cc2F)C1 (stereo not drawn) [Tosufloxacin (tosylate hydrate)] | 44% | 36%
O=C(/C=C/c1ccc(O)cc1)OC[C@H]1O[C@@H](Oc2c(-c3ccc(O)cc3)oc3cc(O)cc(O)c3c2=O)[C@H](O)[C@@H](O)[C@@H]1O [Tribuloside] | 13% | 16%
Cc1c(O)c(O)cc2c1CC=C1[C@@]2(C)CC[C@@]2(C)[C@@H]3C[C@](C)(C(=O)O)CC[C@]3(C)CC[C@]12C [Triptohypol C] | 0% | 43%
CC(C)[C@]12O[C@H]1[C@@H]1O[C@@]13[C@@]1(C)CCC4=C(COC4=O)[C@@H]1C[C@@H]1O[C@@]13C2=O [Triptonide] | 7% | 13%
C[C@@H]1O[C@@H](OC[C@H]2O[C@@H](Oc3c(-c4ccc(OCCO)c(OCCO)c4)oc4cc(OCCO)cc(O)c4c3=O)[C@H](O)[C@@H](O)[C@@H]2O)[C@H](O)[C@H](O)[C@H]1O [Troxerutin] | 0% and 3% | 0% and 6%
CC(=O)O[C@@H]1CC[C@]2(C)C3=C(CC[C@H]2C1(C)C)[C@]1(C)CC[C@H]([C@@H](CCC=C(C)C)C(=O)O)[C@@]1(C)CC3 [Tsugaric acid A] | 12% | 12%
C[C@@H]1O[C@H]2O[C@H]3[C@@H](OC[C@H](O)[C@@H]3O)OC(=O)[C@]34CCC(C)(C)C[C@H]3C3=CC[C@@H]5[C@@]6(C)C[C@H](O)[C@H](O[C@@H]7O[C@H](CO)[C@@H](O)[C@H](O)[C@H]7O[C@@H]7O[C@@H](COC(=O)C[C@](C)(O)CC(=O)O[C@@H]1[C@@H](O[C@@H]1OC[C@@H](O)[C@H](O)[C@H]1O)[C@H]2O)[C@H](O)[C@@H](O)[C@@H]7O)[C@@](C)(CO)[C@@H]6CC[C@@]5(C)[C@]3(C)C[C@H]4O [Tubeimoside III] | 0% | 36%
CC1OC2OC3C(OCC(O)C3O)OC(=O)C34CCC(C)(C)CC3C3=CCC5C6(C)CC(O)C(OC7OC(CO)C(O)C(O)C7OC7OCC(OC(=O)CC(C)(O)CC(=O)OC1C(OC1OCC(O)C(O)C1O)C2O)C(O)C7O)C(C)(CO)C6CCC5(C)C3(C)CC4O (stereo not drawn) [Tubeimoside II] | 0% | 2%
CCCNC[C@]1(O)[C@H](C)O[C@@H](O[C@H]2[C@H](C)[C@@H](O[C@@H]3O[C@H](C)C[C@H](N(C)C)[C@H]3O)[C@](C)(O)C[C@@H](C)CN[C@H](C)[C@@H](O)[C@](C)(O)[C@@H](CC)OC(=O)[C@@H]2C)C[C@@]1(C)OC [Tulathromycin A] | 20% | 9%
C=C1[C@H](OC(=O)/C=C(\C)CC)C[C@@H](C(C)C)[C@@H]2[C@@H]([C@@H](C)OC(C)=O)C(=O)C[C@@H]12 [Tussilagone] | 12% | 31%
CC[C@H]1OC(=O)C[C@@H](O)[C@H](C)[C@@H](O[C@@H]2O[C@H](C)[C@@H](O[C@H]3C[C@@](C)(O)[C@@H](O)[C@H](C)O3)[C@H](N(C)C)[C@H]2O)[C@@H](CC=O)C[C@@H](C)C(=O)/C=C/C(C)=C/[C@@H]1CO[C@@H]1O[C@H](C)[C@@H](O)[C@@H](OC)[C@H]1OC.O=C(O)C(O)C(O)C(=O)O [Tylosin (tartr ate)] | 0% | 1%

Compound | Percentage of motility inhibition 0 h | Percentage of motility inhibition 24 h
COc1cc(-c2oc3cc(O)cc(O)c3c(=O)c2O[C@@H]2O[C@H](CO[C@@H]3O[C@@H](C)[C@H](O)[C@@H](O)[C@H]3O)[C@@H](O)[C@H](O)[C@H]2O[C@@H]2O[C@@H](C)[C@H](O)[C@@H](O)[C@H]2O)ccc1O [Typhaneoside] | 26% | 15%
CC1=CC(=O)C2(C(C)C)CC12 (stereo not drawn) [Umbellulone] | 0% | 1%
NC(N)=O [Urea] | 10% | 13%
CC(=O)O[C@H]1CC[C@]2(C)[C@H]3CC=C4[C@@H]5[C@@H](C)[C@H](C)CC[C@]5(C(=O)O)CC[C@@]4(C)[C@]3(C)CC[C@H]2C1(C)C [Ursolic acid acetate] | 24% | 18%
C/C=C1\C[C@@H](C)[C@](O)(CO)C(=O)OCC2=CC[N+]3([O-])CC[C@@H](OC1=O)[C@@H]23 (stereo partly drawn) [Usaramine N‐oxide] | 22% and 12% | 
C/C=C1\C[C@@H](C)[C@](O)(CO)C(=O)OCC2=CCN3CC[C@@H](OC1=O)[C@@H]23 [Usaramine] | 31% | 21%
O=c1cc(-c2ccc(O[C@@H]3O[C@H](CO)[C@@H](O)[C@H](O)[C@H]3O)cc2)oc2cc(O)c([C@@H]3O[C@H](CO)[C@@H](O)[C@H](O)[C@H]3O[C@@H]3OC[C@H](O)[C@H](O)[C@H]3O)c(O)c12 [Vaccarin] | 0% | 6%
CC(C)[C@H](N)C(=O)OCCOCn1cnc2c(=O)nc(N)[nH]c21.Cl [Valacyclovir (hydrochloride)] | 38% | 9%
C=C(C)[C@@H]1CCC2=CCC[C@@H](C)[C@]2(C)C1 [Valencene] | 3% | 4%
CC(C)[C@H](N)C(=O)OCC(CO)OCn1cnc2c(=O)nc(N)[nH]c21.Cl (stereo partly drawn) [Valganciclovir (hydrochloride)] | 9% | 0%
COC(=O)CC(NC(=O)[C@@H](NC(=O)OC(C)C)C(C)C)c1ccc(Cl)cc1 (stereo partly drawn) [Valifenalate] | 26% | 3%
C=C[C@]1(C)C[C@@H](OC(=O)CSC(C)(C)CNC(=O)[C@H](N)C(C)C)[C@]2(C)[C@H](C)CC[C@]3(CCC(=O)[C@H]32)[C@@H](C)[C@@H]1O.Cl [Valnemulin (Hydrochloride)] | 29% | 12%
CN[C@H](CC(C)C)C(=O)N[C@H]1C(=O)N[C@@H](CC(N)=O)C(=O)N[C@H]2C(=O)N[C@H]3C(=O)N[C@H](C(=O)N[C@H](C(=O)O)c4cc(O)cc(O)c4-c4cc3ccc4O)[C@H](O)c3ccc(c(Cl)c3)Oc3cc2cc(c3O[C@@H]2O[C@H](CO)[C@@H](O)[C@H](O)[C@H]2O[C@H]2C[C@](C)(N)[C@H](O)[C@H](C)O2)Oc2ccc(cc2Cl)[C@H]1O.Cl [Vancomycin (hydrochloride)] | 15% | 0%
Cl.O[C@H]1CCN2Cc3ccccc3N=C12 [Vasicine (hydrochloride)] | 0% | 2%
O=c1c2ccccc2nc2n1CC[C@@H]2O [Vasicinone] | 0% | 0%
COC(=O)C1=CO[C@@H](O[C@@H]2O[C@H](CO)[C@@H](O)[C@H](O)[C@H]2O)[C@H]2[C@@H]1C(=O)C[C@@H]2C [Verbenalin] | 60% | 44%
O=c1cc(-c2ccc(O)cc2)oc2c([C@@H]3O[C@H](CO)[C@@H](O)[C@H](O)[C@H]3O)c(O)c([C@@H]3O[C@H](CO)[C@@H](O)[C@H](O)[C@H]3O)c(O)c12 [Vicenin 2] | 0% | 3%
O=c1cc(-c2ccc(O)cc2)oc2c([C@@H]3OC[C@@H](O)[C@H](O)[C@H]3O)c(O)c([C@@H]3O[C@H](CO)[C@@H](O)[C@H](O)[C@H]3O)c(O)c12 [Vicenin 3] | 15% | 3%
CC[C@]1(O)C[C@@H]2CN(CCc3c([nH]c4ccccc34)[C@@](C(=O)OC)(c3cc4c(cc3OC)N(C)[C@H]3[C@@](O)(C(=O)OC)[C@H](OC(C)=O)[C@]5(CC)C=CCN6CC[C@]43[C@@H]65)C2)C1.O=S(=O)(O)O [Vinblastine (sulfate)] | 0% and 8% | 0% and 1%
